Three molecules from ChEMBL document CHEMBL1146473, “Tyromycic acids B-E, new lanostane triterpenoids from the mushroom Tyromyces fissilis” (J Nat Prod, 2004) can be followed below.

Assay [1] concerns Radical scavenging activity. Nature of the assay: Antioxidant activity assessed as DPPH radical scavenging activity. In kind it is functional. Background: The DPPH test is a chemical assay of radical scavenging.
Assay [2] deals with Human immunodeficiency virus 1. In words: Antiviral activity against HIV1 infected in human MT4 cells. In kind it is functional, organism-based.

Molecules are shown by their SMILES. The source made the active and inactive calls. The calls are words filed in the database; no cut-off is given here.

Take `CC(=O)O[C@@H]1C=C2C(=CC[C@H]3C(C)(C)[C@@H](O)CC[C@]23C)[C@]2(C)CC[C@H]([C@H](C)CC/C=C(\C)C(=O)O)[C@@]12C`: the result in assay [1] and in assay [2] was inactive.
For `CC(=O)O[C@@H]1C2=C(CC[C@H]3C(C)(C)C(=O)CC[C@]23C)[C@]2(C)CC[C@H]([C@H](C)CC/C=C(\C)C(=O)O)[C@@]2(C)[C@@H]1OC(C)=O`, the outcome in assay [1] and in assay [2] was inactive.
For `C/C(=C\CC[C@@H](C)[C@H]1CC[C@@]2(C)C3=CC[C@H]4C(C)(C)C(=O)CC[C@]4(C)C3=C[C@@H](O)[C@]12C)C(=O)O`, the outcome in assay [1] and in assay [2] was inactive.
